Measured values taken from patent US12459940B2, “Oxazole compound as multi-targeted inhibitor of IRAK4 and BTK” (SHANGHAI FOSUN PHARMACEUTICAL INDUSTRIAL DEVELOPMENT CO., …, priority 2019, dated 2025).

How the values were obtained:
[1] = system: OCI-LY10 human B-cell lymphoma cells; test: OCI-LY10 cell proliferation inhibition (CellTiter-Glo); type: cell-based; settings: OCI-Ly10, 72 h, treated for 3 days
Experimental: OCI-LY10 human B-cell lymphoma cells were cultured in a 37° C., 5% CO2 incubator. The composition of medium was IMDM (GIBCO, Cat #12440053); the supplementary compositions were 20% FBS (Hyclone, Cat #SH30084.03); 1% PenStrep (Thermo, Cat #SV30010).
(§1) The tumor cell lines OCI-LY10 and TMD8 were used to detect the effect of the compound on inhibiting tumor cell proliferation in vitro. The tumor cell line was cultured in a 37° C., 5% CO2 incubator according to the culture conditions shown, and passaged regularly, then the cells in the logarithmic growth phase were taken, counted, and spread in a 96-well plate (the cells in each well were adjusted to an appropriate concentration, a total of […] per well was added). After incubating overnight in a 37° C., 5% CO2 incubator, drugs with different concentration gradients (10 μL of drug solution was added) were added and treated for 3 days, then 50 μL of CellTiter-Glo working solution was added to each well, and the cell plate was wrapped with aluminum foil to avoid light. The culture plate was shaken on an orbital shaker for 2 minutes to induce cell lysis, and placed at room temperature for 10 minutes to stabilize the luminescence signal, then the luminescence signal was detected on the 2104 EnVision plate reader.
(§2) The Inhibition rate (IR) of the tested compound was calculated using the following formula: IR (%)=(1−(RLU compound−RLU blank control)/(RLU solvent control−RLU blank control))*100%.
(§3) The inhibition rates of different concentrations of the compounds were calculated in Excel, and then the inhibition curves were made by GraphPad Prism software and the related parameters were calculated, including the minimum inhibition rate, the maximum inhibition rate and IC50.

[2] = target: T1, human BTK (Homo sapiens, UniProt Q06187); test: In vitro BTK kinase activity, 33P isotope-labeled kinase activity assay (Reaction Biology Corp); type: biochemical; settings: 33P-ATP, 2 hours at room temperature
T1 construct: purchased Reaction Biology Corp
T1 sequence (Q06187 whole entry): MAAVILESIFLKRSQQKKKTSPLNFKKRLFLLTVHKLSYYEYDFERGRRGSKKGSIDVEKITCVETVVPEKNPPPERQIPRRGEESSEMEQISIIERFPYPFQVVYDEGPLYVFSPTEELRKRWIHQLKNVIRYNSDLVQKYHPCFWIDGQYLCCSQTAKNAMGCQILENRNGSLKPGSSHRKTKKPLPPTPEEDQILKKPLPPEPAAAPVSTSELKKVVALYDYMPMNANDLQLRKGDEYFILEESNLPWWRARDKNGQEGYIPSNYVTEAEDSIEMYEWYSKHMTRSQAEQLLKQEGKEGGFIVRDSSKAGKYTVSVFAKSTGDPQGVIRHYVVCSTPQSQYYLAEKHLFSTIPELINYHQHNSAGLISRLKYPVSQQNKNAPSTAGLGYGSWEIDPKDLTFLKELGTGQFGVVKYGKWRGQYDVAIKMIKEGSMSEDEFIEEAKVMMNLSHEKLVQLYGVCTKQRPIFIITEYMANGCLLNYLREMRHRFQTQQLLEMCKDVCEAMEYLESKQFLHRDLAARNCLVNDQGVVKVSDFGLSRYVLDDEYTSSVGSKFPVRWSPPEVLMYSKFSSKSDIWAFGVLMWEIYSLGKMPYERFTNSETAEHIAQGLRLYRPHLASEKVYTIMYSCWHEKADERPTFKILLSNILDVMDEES
Experimental: The IC50 values were determined using ^33P isotope-labeled kinase activity assay (Reaction Biology Corp) to evaluate the inhibitory ability of the tested compounds on human BTK.
Buffer conditions: 20 mM Hepes (pH 7.5), 10 mM MgCl2, 1 mM EGTA, 0.02% Brij35, 0.02 mg/mL BSA, 0.1 mM Na3VO4, 2 mM DTT, 1% DMSO.
Test procedure: At room temperature, the tested compound was dissolved in DMSO to prepare a 10 mM solution for later use. The substrate was dissolved in a newly prepared buffer solution, and the tested BTK kinase was added thereto and mixed evenly. The compound dissolved in DMSO was added to the kinase reaction mixture through Echo 550 (Acoustic technology; Nanoliter range). After incubation for 20 minutes at room temperature, ^33P-ATP was added to initiate the reaction. The reaction was carried out at room temperature for 2 hours, and the radioactivity of the reaction liquid point was detected by filtration-binding method with P81 ion exchange filter paper. The kinase activity data were expressed by comparing the kinase activity of the group containing the tested compound with the kinase activity of the blank group (only containing DMSO), and the IC50 value was obtained by curve fitting by Prism4 software (GraphPad), the experimental results are shown in Table 10.

[3] = system: TMD8 human B-cell lymphoma cells; test: TMD-8 cell proliferation inhibition (CellTiter-Glo); type: cell-based; settings: TMD8, 72 h, treated for 3 days
Experimental: TMD8 human B-cell lymphoma cells were cultured in a 37° C., 5% CO2 incubator. The composition of medium was RPMI1640 (GIBCO, Cat #22400-089); the supplementary compositions were 10% FBS (Hyclone, Cat #SH30084.03); 1% PenStrep (Thermo, Cat #SV30010).
as §1, §2, §3

[4] = system: TNF-α secretion; test: In vivo pharmacodynamic study of LPS-induced TNF-α secretion in SD rats; settings: SD rat, oral
Experimental: SD rats were orally given the solvent, the positive drug dexamethasone (DEX, 0.5 mg/kg) and the tested compound, and LPS (1 mg/kg) was intraperitoneally injected 0.5 hours after the administration. Two hours after LPS injection, the animals were euthanized by CO2, and blood samples were collected from the heart and placed in an anticoagulant tube containing EDTA-K2, then partial anticoagulated blood was centrifuged to separate the plasma and the plasma was frozen at −80° C.
The plasma was taken out of the refrigerator at −80° C., thawed at room temperature, and the concentration of TNF-α in the plasma was detected according to the ELISA kit instructions.
The experimental data were expressed by Mean±standard error (Mean±SEM), and the level of TNF-α was expressed by One-way ANOVA, and p<0.05 was considered as a significant difference. The result of in vivo pharmacodynamic study of TNF-α secretion in SD rats induced by […] (LPS) are shown in FIG. 1

[5] = system: TNF-α production in THP-1 cells; test: THP-1 cytological TNFa ELISA assay (LPS-stimulated); type: cell-based; settings: Homo sapiens, TNF-α in culture supernatant, 150 ng/mL LPS, 18 hours
Experimental: THP-1 human acute […] leukemia cells were purchased from ATCC (Cat #TIB-202) and cultured at 37° C. in 5% CO2 incubator. The composition of medium was RPMI1640 (Gibco, Cat #22400-105), and the supplementary compositions were 10% FBS (Gibco, Cat #10091148); 1% PenStrep (Gibco, Cat #15140); 0.05 mM 2-Mercaptoethanol (Sigma, Cat #M6250).
TNF-α Elisa kit was used to detect the content of TNF-α in cell culture supernatant samples. TNF-α was produced by stimulating THP-1 cells with 150 ng/mL LPS (Sigma, Cat #L6529).
THP-1 cells cultured normally at logarithmic growth stage were seeded in a 96-well plate (Corning #3599) at a certain concentration (1*10^5/100 μL) and then put into a cell incubator for incubation. After two hours, 16.7 μL of different concentrations of the compound to be tested (8*final concentration) were added and incubated in an incubator. After one hour, 16.7 μL of 1200 ng/mL LPS was added and incubated in an incubator. After 18 hours, the culture supernatant samples were collected by centrifugation, and the content of TNF-α could be detected by TNF-α Elisa kit. Finally, OD signals (OD450-OD570) were read on envision board reader.
The OD450-OD570 signal value was converted into a percentage inhibition rate. Inhibition rate %=(ZPE−sample)/(ZPE−HPE)*100.
“HPE” refers to the OD450-OD570 signal value of the control well without LPS stimulated cells, and “ZPE” refers to the OD450-OD570 signal value of the control well with LPS stimulated cells. The IC50 value of the compound was calculated by XLFit in the excel add-in. Y=Bottom+(Top−Bottom)/(1+(IC50/X)^HillSlope). Equation: […]

`Cc1cc(-c2nc(C(=O)Nc3cn4cc(CCC(C)(C)O)nc4cc3N3CCCCC3)co2)ccn1` [WX001] was tested, and the IC50 [1] was 128 nM, the IC50 [2] was 6.7 nM and the IC50 [3] was 300 nM. The “inhibitory effect on TNF-α secretion induced by LPS” value ([4]; LPS 1 mg/kg intraperitoneal 0.5 hours after administration, plasma 2 hours after LPS) was “significant inhibitory effect”, the “efficacy on LPS-induced TNF-α secretion compared with dexamethasone” value ([4]; dose of 20 mpk) was “equivalent to the efficacy of dexamethasone (DEX) at a dose of 0.5 mpk” and the IC50 [5] was 124 nM.
